From patent publication US5279956A, “Activated protein C polypeptides and anti-peptide antibodies, diagnostic methods and systems for inhibiting activated protein C” (The Scripps Research Institute, priority 1991, dated 1994)
No end group written: not given here.

Molecular target: T1, APC (Homo sapiens, UniProt P04070)
T1 construct: begins at amino acid residue position 158 and ends at 419; The light chain is 155 amino acid residues in length; tissue Factor IX concentrate from Immuno AG, Vienna; thrombin from Enzyme Research Laboratories
T1 sequence (P04070 212-461): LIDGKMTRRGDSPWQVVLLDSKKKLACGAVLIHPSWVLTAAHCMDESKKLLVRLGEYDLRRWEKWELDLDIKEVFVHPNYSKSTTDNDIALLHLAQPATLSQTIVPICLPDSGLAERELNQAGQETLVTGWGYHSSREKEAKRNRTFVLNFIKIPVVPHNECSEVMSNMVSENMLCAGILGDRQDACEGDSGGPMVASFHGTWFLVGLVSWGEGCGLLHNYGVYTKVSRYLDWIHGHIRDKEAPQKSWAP
T1 sequence (P04070 43-197): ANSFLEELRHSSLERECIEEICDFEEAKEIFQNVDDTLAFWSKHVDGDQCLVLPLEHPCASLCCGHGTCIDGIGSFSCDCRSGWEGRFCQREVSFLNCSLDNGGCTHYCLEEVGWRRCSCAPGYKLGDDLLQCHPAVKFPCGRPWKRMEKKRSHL
Assay: Activated partial thromboplastin time (APTT) coagulation assay of APC anticoagulant activity
Format: biochemical
Conditions: APTT assay in the presence of APC
Procedure: The effect of the synthetic peptides on APC anticoagulant activity were determined using the APTT assay in the presence of either normal citrate anticoagulated plasma (NHP) or protein S depleted plasma (PSDP). The assays were performed essentially as described. See Marlar et al., Blood, 59:1067-1072 […]; Suzuki et al., J. Biol. Chem., 258:163-168 (1983); Gruber et al., Blood, 73:639-642 (1989); Ohlin et al., Biochem., 29:644-651 (1990). NHP was purchased from George King Bio-Medical, Inc. (Overland Park, Kans.). PSDP was prepared from a normal human citrate-anticoagulated plasma pool from ten healthy donors. Protein S was immunodepleted from the NHP by immunoaffinity chromatography of NHP over an anti-protein S antibody column to form PSDP. The anti-protein S antibody column was prepared by coupling 100 mg of a monoclonal, high-affinity, calcium-independent anti-PS antibody, designated S7, to 30 ml of CNBr-activated Sepharose 4B (Pharmacia) as described in Example 2c1). Residual total protein S content in the resultant PSDP was less than 0.1% protein S as determined by quantitative immunoblotting, by solid-phase ELISA for total protein S and by electroimmunoassay.
For the APTT assay, APC was prepared as described in Example 2c2). The specific anticoagulant activity of APC was determined to be 250 Units/mg. The concentration of the APC used in the assay was initially optimized with respect to the sensitivity of the assay towards APC-induced prolongation of clotting time compared to clotting time without APC.
Once the optimal concentration of APC was determined, peptides from Table 2 were then separately admixed for a final concentration of 500 μM with 10 nM APC in 100 μl of TBS-BSA at pH 7.4 to form peptide-APC admixtures. The resulting admixtures were maintained for seven minutes at 37° C. Separate aliquots of peptides maintained under the same conditions in the absence of APC served as controls for the inhibitory effect of synthetic peptides on APC anticoagulant activity. After the maintenance period, 100 μl of NHP and 100 μl APTT-reagent Thrombosil (Ortho Diagnostics, Raritan, N.J.) were admixed into each peptide admixture and maintained for 200 seconds at 37° C. to form a pre-coagulation admixture. In some experiments, PSDP was used in the place of NHP to determine the effect of Protein S on the assay system. Coagulation was then initiated by the admixture of 100 μl of 30 mM CaCl2 in TBS prewarmed to 37° C. to each of the pre-coagulation admixtures. The time for clot formation was measured by an Electra 700 Automatic Coagulation Timer (Medical Laboratory Automation, Inc., Mount Vernon, N.Y.). Each peptide's effect was determined in duplicate.
Additional assays were performed to compare the specificity of the inhibitory effect of peptide-(390-404) on APC anticoagulant activity. Both APTT and Xa-1-stage assays were performed with peptide-(390-404) and with the same peptide synthesized in the reverse order, peptide-(404-390), at concentrations of the peptides ranging from 0 μM to 40 μM. In APTT assays performed as described above in the presence of NHP, APC was used at a concentration of 2.5 nM. For APTT assays in the presence of PSDP, APC was used at a concentration of 5 nM. […]
Once the optimal concentration of APC was determined, anti-(390-404) was separately admixed ranging in concentration from 0.0 to 240 nM with APC in 200 μl of TBS-BSA and 30 mM CaCl2 at pH 7.4 to form an anti-(390-404)-APC immunoreaction admixture pre-maintenance solution. […]

Substance: KRNRTFVLNFIKIPV-NH2 [peptide-(311-325), KRNRTFVLNFIKIPV]
- IC50: 20 µM
- IC90: 50 µM
